Laboratory results: patent publication US8470822B2, “Folate mimetics and folate-receptor binding conjugates thereof” (Purdue Research Foundation, priority 2001, dated 2013)

Experiments:
[1] = system: folate-receptor-positive human KB cell tumor xenografts; assay: Biodistribution of 111In radiotracer in KB tumor-bearing athymic mice after intravenous administration; format: in vivo; conditions: for Percentage of Injected 111In Dose Per Organ (Tissue): Muscle: muscle assumed 42% of body mass
Protocol: Our primary animal model for evaluation of the biodistribution and pharmacokinetics of folate-receptor-targeted radiopharmaceuticals has been athymic mice bearing subcutaneously implanted folate-receptor-positive human KB cell tumors. […] After 3 weeks on folate-free diet, mouse serum folate levels drop to 25±7 nM from the initial 720±260 nM serum folate level when the animals are fed normal rodent chow. This dietary intervention is believed to be a reasonable manipulation of the animal model, since the mice would have serum folate levels only slightly higher than the folate concentration of normal human serum. Thus, in these mouse biodistribution studies the radiotracer is competing for tumor folate receptors with physiologically relevant concentrations of endogenous unlabeled serum folate.
The substantial retention of ^111In in the kidneys is fully consistent with the binding of ^111In-CYK4-013 to tissue folate receptors, since the renal proximal tubule is a known normal tissue site of folate receptor expression. […] The behavior of the ^111In-CYK4-013 radiopharmaceutical in this animal model (Table 2) is very similar to that observed for ^111In-DTPA-Folate (Table 3).
Results. Similar to ^111In-DTPA-Folate, ^111In-CYK4-013 selectively localized in the folate-receptor-positive tumor xenografts, and afforded prolonged tumor retention of ^111In (5.4±0.8; 5.5±1.1; and 3.6±0.6% ID/g at 1 hour, 4 hours, and 24 hours, respectively) (Table 2). […] Blockable binding was also observed in the kidneys, where the folate receptor occurs in the proximal tubules.

[2] = HPLC analysis of stability of the isolated radiometal complex; format: physicochemical; conditions: room temperature
Protocol: The major radioactive HPLC peak, eluting with a retention time of 14.1 minutes, was collected. […] HPLC conditions: Solvent A=56 mM NH4OAc in water; Solvent B═CH3CN. Flow rate=1 mL/min on 4.6×250 mm C18 reverse-phase column. Linear gradient conditions: 5% B at zero minutes, ramping to 25% B at 25 minutes, then ramping to 60% B at 27 minutes and 100% B at 30 minutes.
HPLC-purified ^64Cu-CY4-036 was removed from the HPLC solvents by solid-phase extraction. A C18 Sep-Pak Light solid phase extraction cartridge (Millipore, Inc.) was conditioned by washing with ethanol followed by water. The HPLC-purified ^64Cu-CY4-036 was loaded onto the C18 Sep-Pak after dilution with water to 5% acetonitrile, the Sep-Pak was washed with 20 mL water, and the ^64Cu-CY4-036 product recovered by fractional elution with ethanol. The resulting ethanol solution of ^64Cu-CY4-036 was evaporated to dryness under a stream of N2 at room temperature, and the ^64Cu-CY4-036 was reconstituted in water. Analytical HPLC confirmed the radiochemical purity, and stability, of the isolated ^64Cu-CY4-036 product. HPLC conditions: Solvent A=53 mM NH4OAc in water; Solvent B═CH3CN. Flow rate=1 mL/min on 4.6×250 mm C18 reverse-phase analytical column. Linear gradient conditions: 5% B at zero minutes, ramping to 25% B at 25 minutes, then ramping to 60% B at 27 minutes and 100% B at 30 minutes.

[3] = 4 Hours, Blocked: co-injection of folic acid dihydrate 4.1 ± 0.4 mg/kg
[4] = 24 Hours after intravenous administration

For `Nc1nc(O)c2nc(CNc3ccc(C(=O)NCCOCCOCCNC(=O)CN(CCN(CCN(CC(=O)O)CC(=O)O)CC(=O)O)CC(=O)O)cc3)cnc2n1.[111In+3]` [^111In-CYK4-013], the “Percentage of Injected 111In Dose Per Gram (Tissue Wet Mass): Heart” value [1, 3] was 0.015 ± 0.010 % ID/g, the “Percentage of Injected 111In Dose Per Gram (Tissue Wet Mass): Kidney (one)” value [1, 3] was 0.90 ± 0.59 % ID/g and the “Percentage of Injected 111In Dose Per Gram (Tissue Wet Mass): Liver & Gall Bladder” value [1, 3] was 0.051 ± 0.029 % ID/g. The “Percentage of Injected 111In Dose Per Gram (Tissue Wet Mass): Lungs” value [1, 3] was 0.041 ± 0.027 % ID/g, the “Percentage of Injected 111In Dose Per Gram (Tissue Wet Mass): Muscle” value [1, 3] was 0.080 ± 0.057 % ID/g and the “Percentage of Injected 111In Dose Per Gram (Tissue Wet Mass): Spleen” value [1, 3] was 0.028 ± 0.017 % ID/g. For the same compound, the “Percentage of Injected 111In Dose Per Gram (Tissue Wet Mass): Stomach, Intestines & Contents” value [1, 3] was 1.7 ± 1.1 % ID/g, the “Percentage of Injected 111In Dose Per Organ (Tissue): Blood” value [1, 3] was 0.025 ± 0.015 Percentage of Injected 111In D and the “Percentage of Injected 111In Dose Per Organ (Tissue): Heart” value [1, 3] was 0.0023 ± 0.0016 Percentage of Injected 111In D. The “Percentage of Injected 111In Dose Per Organ (Tissue): Kidney (one)” value [1, 3] was 0.23 ± 0.15 Percentage of Injected 111In D, the “Percentage of Injected 111In Dose Per Organ (Tissue): Liver & Gall Bladder” value [1, 3] was 0.074 ± 0.044 Percentage of Injected 111In D and the “Percentage of Injected 111In Dose Per Organ (Tissue): Lungs” value [1, 3] was 0.0082 ± 0.0051 Percentage of Injected 111In D. For the same compound, the “Percentage of Injected 111In Dose Per Organ (Tissue): Spleen” value [1, 3] was 0.0049 ± 0.0029 Percentage of Injected 111In D, the “Percentage of Injected 111In Dose Per Organ (Tissue): Stomach, Intestines & Contents” value [1, 3] was 4.6 ± 2.8 Percentage of Injected 111In D and the “Percentage of Injected 111In Dose Per Organ (Tissue): Tumor” value [1, 3] was 0.0094 ± 0.0061 Percentage of Injected 111In D. It also gave a Tumor/blood ratio [1, 3] of 7.5 ± 2.4, a Tumor/kidney ratio [1, 3] of 0.12 ± 0.03 and a Tumor/liver ratio [1, 3] of 2.2 ± 0.6. For the same compound, the Tumor/muscle ratio [1, 3] was 1.5 ± 0.7, the “Percentage of Injected 111In Dose Per Gram (Tissue Wet Mass): Tumor” value ([1]; 4 Hours, Blocked: co-injection of folic acid dihydrate 4.1 ± 0.4 mg/kg, 0.4 mg/kg) was 0.12±0.07 % ID/g and the “Percentage of Injected 111In Dose Per Organ (Tissue): Muscle” value [1, 3] was 1.0 ± 0.7 Percentage of Injected 111In D. The “Percentage of Injected 111In Dose Per Gram (Tissue Wet Mass): Blood” value [1, 4] was 0.035 ± 0.002 % ID/g, the “Percentage of Injected 111In Dose Per Gram (Tissue Wet Mass): Heart” value [1, 4] was 1.2 ± 0.5 % ID/g and the “Percentage of Injected 111In Dose Per Gram (Tissue Wet Mass): Kidney (one)” value [1, 4] was 105 ± 7 % ID/g. For the same compound, the “Percentage of Injected 111In Dose Per Gram (Tissue Wet Mass): Liver & Gall Bladder” value [1, 4] was 1.2 ± 0.6 % ID/g, the “Percentage of Injected 111In Dose Per Gram (Tissue Wet Mass): Lungs” value [1, 4] was 0.72 ± 0.21 % ID/g and the “Percentage of Injected 111In Dose Per Gram (Tissue Wet Mass): Muscle” value [1, 4] was 1.9 ± 0.6 % ID/g. For the same compound, the “Percentage of Injected 111In Dose Per Gram (Tissue Wet Mass): Spleen” value [1, 4] was 0.27 ± 0.08 % ID/g, the “Percentage of Injected 111In Dose Per Gram (Tissue Wet Mass): Stomach, Intestines & Contents” value [1, 4] was 1.2 ± 0.2 % ID/g and the “Percentage of Injected 111In Dose Per Gram (Tissue Wet Mass): Tumor” value [1, 4] was 3.6±0.6 % ID/g. For the same compound, the “Percentage of Injected 111In Dose Per Organ (Tissue): Blood” value [1, 4] was 0.055 ± 0.002 Percentage of Injected 111In D, the “Percentage of Injected 111In Dose Per Organ (Tissue): Heart” value [1, 4] was 0.18 ± 0.06 Percentage of Injected 111In D and the “Percentage of Injected 111In Dose Per Organ (Tissue): Kidney (one)” value [1, 4] was 26.8 ± 2.7 Percentage of Injected 111In D. For the same compound, the “Percentage of Injected 111In Dose Per Organ (Tissue): Liver & Gall Bladder” value [1, 4] was 1.7 ± 0.9 Percentage of Injected 111In D, the “Percentage of Injected 111In Dose Per Organ (Tissue): Lungs” value [1, 4] was 0.34 ± 0.03 Percentage of Injected 111In D and the “Percentage of Injected 111In Dose Per Organ (Tissue): Spleen” value [1, 4] was 0.055 ± 0.017 Percentage of Injected 111In D. For the same compound, the “Percentage of Injected 111In Dose Per Organ (Tissue): Stomach, Intestines & Contents” value [1, 4] was 3.3 ± 0.6 Percentage of Injected 111In D, the “Percentage of Injected 111In Dose Per Organ (Tissue): Tumor” value [1, 4] was 0.42 ± 0.4 Percentage of Injected 111In D and the Tumor/blood ratio [1, 4] was 105 ± 20. For the same compound, the Tumor/kidney ratio [1, 4] was 0.035 ± 0.008, the Tumor/liver ratio [1, 4] was 3.7 ± 1.4 and the Tumor/muscle ratio [1, 4] was 2.0 ± 0.6. The “Percentage of Injected 111In Dose Per Organ (Tissue): Muscle” value [1, 4] was 23.1 ± 7.0 Percentage of Injected 111In D, the “primary whole-body clearance pathway” value ([1]; athymic mice, intravenous administration) was “Urinary excretion” and the “time the isolated HPLC peak remains stable” value [2] was “at least 7 days”.
